# Source: ChEMBL document CHEMBL1201862, “PubChem BioAssay data set” (2004)
# Activity calls are given as the source filed them. Cut-off read from the data, not from the text of the source: actives have a measured IC50 and inactives only a lower limit.
# Target: Envelope glycoprotein gp160 (Human immunodeficiency virus 1, UniProt Q6QLK5)
# Assay: inhibitors of HIV fusion peptide binding, primary screen, biochemical, uHTS, fluorescence dequenching (AID 1986)
# Sequence of Envelope glycoprotein gp160 (Q6QLK5 whole entry, the tested form may be a part): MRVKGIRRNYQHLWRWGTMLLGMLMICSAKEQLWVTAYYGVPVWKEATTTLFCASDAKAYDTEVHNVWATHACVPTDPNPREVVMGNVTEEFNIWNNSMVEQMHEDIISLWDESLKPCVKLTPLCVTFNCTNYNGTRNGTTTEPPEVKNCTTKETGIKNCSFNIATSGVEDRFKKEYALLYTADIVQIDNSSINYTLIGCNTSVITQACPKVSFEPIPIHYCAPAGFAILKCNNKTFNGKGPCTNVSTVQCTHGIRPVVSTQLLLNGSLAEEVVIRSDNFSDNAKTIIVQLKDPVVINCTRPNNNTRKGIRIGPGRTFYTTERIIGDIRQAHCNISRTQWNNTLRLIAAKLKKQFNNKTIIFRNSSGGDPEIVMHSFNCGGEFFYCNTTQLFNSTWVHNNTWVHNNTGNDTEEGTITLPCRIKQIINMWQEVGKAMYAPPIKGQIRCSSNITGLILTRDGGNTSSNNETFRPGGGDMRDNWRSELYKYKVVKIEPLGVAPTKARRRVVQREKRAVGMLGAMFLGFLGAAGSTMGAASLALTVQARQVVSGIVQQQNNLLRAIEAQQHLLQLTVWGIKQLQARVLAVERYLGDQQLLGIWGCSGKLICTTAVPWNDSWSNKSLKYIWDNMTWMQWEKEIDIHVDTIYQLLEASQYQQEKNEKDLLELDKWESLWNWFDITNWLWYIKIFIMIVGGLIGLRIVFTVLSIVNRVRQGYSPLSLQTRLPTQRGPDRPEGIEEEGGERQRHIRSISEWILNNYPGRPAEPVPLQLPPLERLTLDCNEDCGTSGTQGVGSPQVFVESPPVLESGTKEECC
row,Compound,IC50
1,CCS(=O)(=O)C1=NSC2=NC(=O)/C(=C\c3ccc(OS(=O)(=O)c4ccccc4)c(OC)c3)C(=N)N21,16.8 µM (active)
2,CCOc1ccc2nc(NC(=O)CSc3nc(O)c(C#N)c(-c4ccccc4)n3)sc2c1,11.1 µM (active)
3,O=C(NN1C(=O)/C(=C/c2ccc(O)cc2)SC1=S)c1ccccc1O,23.6 µM (active)
